Results: article PMC5673977, “Transport Deficiency Is the Molecular Basis of Candida albicans Resistance to Antifungal Oligopeptides” (Frontiers in Microbiology, 2017)
Converted amounts (≈) assume the structure as drawn. Where a SMILES comes first, the peptide text is derived from it. [ ]: non-standard residue; d: D form. The star is where a group is joined. Fumaryl(OMe) = COC(=O)/C=C/C(=O)*; Dap = NC[C@H](N)C(=O)O

Key:
Assay type in all cases: cell-based, Candida albicans
C. albicans isolate LNF3 = conditions: YNB-SG medium
Text: (§1) The in vitro growth inhibitory activity of antifungals was quantified by determination of minimal inhibitory concentration (MIC) values by the serial twofold dilution method, using the 96-well microtiter plates in three media: buffered RPMI-1640, YNB-AS, and YNB-SG. Conditions of the RPMI-1640-based assay were the same as outlined in the CLSI recommendations ([Clinical Laboratory Standards Institute, 2008]), except for the end-point readout that was done by spectrophotometric determination of cell density at 531 nm. Turbidity in individual wells was measured with a microplate reader (Victor^3; Perkin Elmer). MIC was defined as the lowest drug concentration that gave at least an 80% decrease in turbidity, relative to that of the drug-free growth control.
(§2) The 96-well microtiter plates were also used for determination of in vitro growth inhibitory activity in YPD and YNB-based media. Individual wells were inoculated with 5 × 10^3 cfu mL^-1 of C. albicans cells from the overnight culture in YPD medium. The inoculated plates were incubated 37°C for 24 h and then turbidity was measured with a microplate reader at 531 nm, as described above for the RPMI-1640-based assay.
(§3) Candida albicans cells, apparently resistant to FMDP-peptides, were isolated from the individual colonies formed on the surface of YNB-SG agar medium containing FMDP-peptide, 10 μg mL^-1 or within the growth inhibitory zones around the paper discs saturated with 10 μL of the FMDP-peptide solution, 1 mg mL^-1. In both versions, the agar surface was inoculated with 10^5 cells from the overnight culture in YPD medium, washed three times with sterile water, suspended in 0.2 mL of sterile water and the cell suspension was spread on the whole surface with a sterile glass rod. Plates were incubated for 48 h at 30°C and isolated colonies were picked with a platinum loop.
(§4) Growth inhibitory activity of FMDP-oligopeptides against C. albicans SC 5314 was also determined by the disc diffusion method. […] Cells grown in these colonies were collected, re-grown in YNB-AS and tested for sensitivity to FMDP-oligopeptides.

C. albicans isolate NF1 = conditions: YNB-SG medium
Text: as §1, §2, §3, §4

C. albicans isolate NF2 = conditions: YNB-SG medium
Text: as §1, §2, §3, §4

C. albicans isolate LNF2 = conditions: YNB-SG medium
Text: as §1, §2, §3, §4

C. albicans isolate LNF1 = conditions: YNB-SG medium
Text: as §1, §2, §3, §4

C. albicans isolate NF3 = conditions: YNB-SG medium
Text: as §1, §2, §3, §4

C. albicans opt4Δ = assay: Initial peptide uptake rate; conditions: 50 mM potassium phosphate buffer (pH 5.0 or 6.5) + 1% glucose, 30°C, 100 μM peptide, TNBS A420, slope 0- to 10-min
Experimental: (§5) Yeast cells grown exponentially in the YNB-SG medium were harvested by centrifugation (3000 ×g, 5 min), washed with 50 mM potassium phosphate buffer (pH 5.0 or 6.5), and suspended in the same buffer containing 1% glucose, to a final cell density corresponding to A660 ≅ 1.0. The cell suspension was incubated at 30°C. After 10 min, an oligopeptide solution was added, to give a final concentration of 100 μM. At that moment and at 5 min intervals thereafter, 2 mL samples of the cell suspension were withdrawn, immediately filtered through the Whatman GF/A filters and the filtrates were used to determine the residual peptide concentration. Then, the 1 mL portions of the filtrates were taken and combined with 1.25 mL aliquots of a solution containing 4% Na2B4O7 × 10 H2O and 0.8 mg mL^-1 of 2,4,6-trinitrobenzenesulfonate. The reaction was carried out at 37°C for 30 min. The A420 values were measured and the peptide concentration was read from the appropriate standard curve. Data were plotted as nanomoles of an oligopeptide, taken up by 1 mg (dry weight) of cells versus time. The initial uptake velocities were determined from the slopes of the linear part of the curves, in the 0- to 10-min region.

[1] = system: C. albicans opt1–opt5Δ ptr2Δ ptr22Δ; assay: Initial peptide uptake rate; conditions: 50 mM potassium phosphate buffer (pH 5.0 or 6.5) + 1% glucose, 30°C, 100 μM peptide, TNBS A420, slope 0- to 10-min
Experimental: as §5

C. albicans opt2Δ opt3Δ = assay: Initial peptide uptake rate; conditions: 50 mM potassium phosphate buffer (pH 5.0 or 6.5) + 1% glucose, 30°C, 100 μM peptide, TNBS A420, slope 0- to 10-min
Experimental: as §5

C. albicans opt1Δ = assay: Initial peptide uptake rate; conditions: 50 mM potassium phosphate buffer (pH 5.0 or 6.5) + 1% glucose, 30°C, 100 μM peptide, TNBS A420, slope 0- to 10-min
Experimental: as §5

C. albicans opt5Δ = assay: Initial peptide uptake rate; conditions: 50 mM potassium phosphate buffer (pH 5.0 or 6.5) + 1% glucose, 30°C, 100 μM peptide, TNBS A420, slope 0- to 10-min
Experimental: as §5

C. albicans SC5314 = assay: Initial peptide uptake rate; conditions: SC 5314; cells grown in YNB-SG; 50 mM potassium phosphate buffer (pH 5.0 or 6.5) + 1% glucose, 30°C, 100 μM peptide, residual peptide by TNBS A420, slope 0- to 10-min
Experimental: as §5

C. albicans ptr2Δ ptr22Δ = assay: Initial peptide uptake rate; conditions: 50 mM potassium phosphate buffer (pH 5.0 or 6.5) + 1% glucose, 30°C, 100 μM peptide, TNBS A420, slope 0- to 10-min
Experimental: as §5

C. albicans SC 5314 = assay: Disc diffusion method; conditions: YNB-AS agar, 10 μg of peptide on a disc (10 μL of 1 mg mL^-1), 48 h, 30°C
Experimental: as §3, §4
FIGURE 3 Disc diffusion activity determination of FMDP-oligopeptides. YNB-AS agar medium, 10 μg of each peptide applied on a disc. (A) F2; (B) F3; (C) F6; (D) F7; (E) F11.

SMILES: COC(=O)/C=C/C(=O)NC[C@H](N)C(=O)N[C@@H](CCCCN)C(=O)N[C@@H](CCCCN)C(=O)N[C@H](C(=O)N[C@H](C(=O)N[C@@H](Cc1ccccc1)C(=O)N[C@@H](Cc1c[nH]c2ccccc12)C(=O)N[C@H](C(=O)N[C@@H](CCCCN)C(=O)N[C@@H](Cc1ccccc1)C(=O)N[C@@H](CCCCN)C(=O)O)C(C)C)C(C)C)C(C)C [Peptide F11, FMDP-Lys-Lys-Val-Val-Phe-Trp-Val-Lys-Phe-Lys] (H-[Dap](Fumaryl(OMe))KKVVFWVKFK-OH; N-terminus assumed)
- MIC (C. albicans isolate LNF3): 16 µg/mL (≈ 10.6 µM)
- MIC (C. albicans isolate NF1): 16 µg/mL (≈ 10.6 µM)
- MIC (C. albicans isolate NF2): 32 µg/mL (≈ 21.2 µM)
- MIC (C. albicans isolate LNF2): 32 µg/mL (≈ 21.2 µM)
- MIC (C. albicans isolate LNF1): 16 µg/mL (≈ 10.6 µM)
- MIC (C. albicans isolate NF3): 16 µg/mL (≈ 10.6 µM)
- Uptake rate ± SD (C. albicans opt4Δ): 1.77 ± 0.18 nmol min^-1 (mg dry weight)^-1
- Uptake rate ± SD [1]: 0.18 ± 0.02 nmol min^-1 (mg dry weight)^-1
- Uptake rate ± SD (C. albicans opt2Δ opt3Δ): 0.22 ± 0.03 nmol min^-1 (mg dry weight)^-1
- Uptake rate ± SD (C. albicans opt1Δ): 1.64 ± 0.11 nmol min^-1 (mg dry weight)^-1
- Uptake rate ± SD (C. albicans opt5Δ): 1.92 ± 0.18 nmol min^-1 (mg dry weight)^-1
- Uptake rate ± SD (C. albicans SC5314): 2.25 ± 0.15 nmol min^-1 (mg dry weight)^-1
- Uptake rate ± SD (C. albicans ptr2Δ ptr22Δ): 2.28 ± 0.15 nmol min^-1 (mg dry weight)^-1
- Appearance of growth inhibitory zone (C. albicans SC 5314): clear

SMILES: COC(=O)/C=C/C(=O)NC[C@H](NC(=O)[C@H](CCSC)NC(=O)[C@@H](NC(=O)[C@@H]1CCCN1C(=O)[C@H](CC(C)C)NC(=O)[C@@H](N)CCCCN)C(C)C)C(=O)O [Peptide F6, Lys-Leu-Pro-Val-Met-FMDP] (H-KLPVM[Dap](Fumaryl(OMe))-OH; N-terminus and C-terminus assumed)
- MIC (C. albicans isolate LNF3): 4 µg/mL (≈ 5.1 µM)
- MIC (C. albicans isolate NF1): 4 µg/mL (≈ 5.1 µM)
- MIC (C. albicans isolate NF2): 4 µg/mL (≈ 5.1 µM)
- MIC (C. albicans isolate LNF2): 8 µg/mL (≈ 10.2 µM)
- MIC (C. albicans isolate LNF1): 4 µg/mL (≈ 5.1 µM)
- MIC (C. albicans isolate NF3): 4 µg/mL (≈ 5.1 µM)
- Uptake rate ± SD (C. albicans opt4Δ): 2.99 ± 0.11 nmol min^-1 (mg dry weight)^-1
- Uptake rate ± SD [1]: 0.18 ± 0.03 nmol min^-1 (mg dry weight)^-1
- Uptake rate ± SD (C. albicans opt2Δ opt3Δ): 0.56 ± 0.09 nmol min^-1 (mg dry weight)^-1
- Uptake rate ± SD (C. albicans opt1Δ): 2.08 ± 0.15 nmol min^-1 (mg dry weight)^-1
- Uptake rate ± SD (C. albicans opt5Δ): 2.03 ± 0.15 nmol min^-1 (mg dry weight)^-1
- Uptake rate ± SD (C. albicans SC5314): 3.12 ± 0.20 nmol min^-1 (mg dry weight)^-1
- Uptake rate ± SD (C. albicans ptr2Δ ptr22Δ): 3.00 ± 0.25 nmol min^-1 (mg dry weight)^-1
- Appearance of growth inhibitory zone (C. albicans SC 5314): clear

SMILES: COC(=O)/C=C/C(=O)NC[C@H](N)C(=O)N[C@@H](CCCNC(=N)N)C(=O)N[C@@H](CCCCN)C(=O)N[C@@H](CCCCN)C(=O)N[C@@H](Cc1c[nH]c2ccccc12)C(=O)N[C@@H](Cc1ccccc1)C(=O)N[C@@H](Cc1c[nH]c2ccccc12)C(=O)O [Peptide F7, FMDP-Arg-Lys-Lys-Trp-Phe-Trp] (H-[Dap](Fumaryl(OMe))RKKWFW-OH; N-terminus and C-terminus assumed)
- MIC (C. albicans isolate LNF3): 16 µg/mL (≈ 13.9 µM)
- MIC (C. albicans isolate NF1): 16 µg/mL (≈ 13.9 µM)
- MIC (C. albicans isolate NF2): 16 µg/mL (≈ 13.9 µM)
- MIC (C. albicans isolate LNF2): 16 µg/mL (≈ 13.9 µM)
- MIC (C. albicans isolate LNF1): 16 µg/mL (≈ 13.9 µM)
- MIC (C. albicans isolate NF3): 16 µg/mL (≈ 13.9 µM)
- Uptake rate ± SD (C. albicans opt4Δ): 1.85 ± 0.12 nmol min^-1 (mg dry weight)^-1
- Uptake rate ± SD [1]: 0.23 ± 0.02 nmol min^-1 (mg dry weight)^-1
- Uptake rate ± SD (C. albicans opt2Δ opt3Δ): 0.46 ± 0.08 nmol min^-1 (mg dry weight)^-1
- Uptake rate ± SD (C. albicans opt1Δ): 1.70 ± 0.12 nmol min^-1 (mg dry weight)^-1
- Uptake rate ± SD (C. albicans opt5Δ): 1.44 ± 0.10 nmol min^-1 (mg dry weight)^-1
- Uptake rate ± SD (C. albicans SC5314): 2.40 ± 0.16 nmol min^-1 (mg dry weight)^-1
- Uptake rate ± SD (C. albicans ptr2Δ ptr22Δ): 2.22 ± 0.16 nmol min^-1 (mg dry weight)^-1
- Appearance of growth inhibitory zone (C. albicans SC 5314): clear
